# Reference: patent US7897765B2, “Therapeutic compounds and uses thereof” (Elixir Pharmaceuticals, Inc., priority 2003, dated 2011)
# Target: GHS-R (Homo sapiens, UniProt Q92847)
# Assay: cell based assay of GHS-R antagonist/agonist activity
# Design: key: A refers to a compound having antagonist activity with Ki<100 nM in a cell based assay; B refers to a compound having agonist activity with EC50<100 nM in a cell based assay; C refers to a compound having antagonist activity of Ki>100 nM and <1500 nM in a cell based assay; D refers to a compound having antagonist activity with Ki, <100 nM and agonist activity with EC50<100 nM in a cell-based assay; E refers to other exemplary compounds
# Settings: GHS-R antagonist Ki and/or agonist EC50 class
# Description: Cell-Based Activity Assays. For example, the ability of the compound to modulate accumulation of a second messenger signaling component downstream of GHS-R can be evaluated. For example, inositol phosphates (IP), as a result of Gq signaling in a mammalian cell, e.g., a Cos-7 cells. Other tissue culture cells, Xenopus oocytes, and primary cells can also be used.
# Phosphatidylinositol turnover assay. One day after transfection COS-7 cells are incubated for 24 hours with 5 μCi of [^3H]-myo-inositol in 1 ml medium supplemented with 10% fetal calf serum, 2 mM glutamine and 0.01 mg/ml gentamicin per well. Cells are then washed twice in buffer, 20 mM HEPES, pH 7.4, supplemented with 140 mM NaCl, 5 mM KCl, 1 mM MgSO4, 1 mM CaCl2, mM glucose, 0.05% (w/v) bovine serum; and incubated in 0.5 ml buffer supplemented with 10 mM LiCl at 37° C. for 30 min. For some assays, it is also useful to incubate the cells with adenosine deaminase ADA (200 U/mg, Boehringer Mannheim, Germany) for 30 min in a concentration of 1 U/ml.
# After incubation with the compound of interest for 45 min at 37° C., cells are extracted with 10% ice-cold perchloric acid and placed on ice for 30 min. The resulting supernatants are neutralized with KOH in HEPES buffer, and [^3H]-inositol phosphate is purified on Bio-Rad AG 1-X8 anion exchange resin as described. Assays can be run in duplicate, triplicate, etc.
# Other second messenger assays. Another second messenger that can be evaluated is Ca^2+. Ca^2+ mobilization can be evaluated using a calcium sensitive detector, such as aequorin protein or a dye, e.g., FURA-2. In an exemplary assay, calcium mobilization is evaluated in a recombinant cell that expresses GHS-R and aequorin.
# Gene expression assay. HEK293 cells (30 000 cells/well) seeded in 96-well plates are transiently transfected with a mixture of pFA2-CREB and pFR-Luc reporter plasmid (PathDetect™ CREB trans-Reporting System, Stratagene) and nucleic acid encoding GHS. One day after transfection, cells are treated with the compound of interest in an assay volume of 100 μl medium for 5 hrs. After treatment, cells are cultured in low serum (2.5%). After the incubation period, the assay is ended by washing the cells twice with PBS and adding 100 μl luciferase assay reagent (LucLite™, Packard Bioscience). Luminescence is measured (e.g., as relative light units (RLU)) using in a luminometer such as the TopCounter™ (Packard Bioscience) for 5 sec.
# IC50 and EC50 values can be determined by nonlinear regression, e.g., using the Prism 3.0 software (GraphPad Software, San Diego).
# Chain of GHS-R (Q92847 whole entry, species assumed): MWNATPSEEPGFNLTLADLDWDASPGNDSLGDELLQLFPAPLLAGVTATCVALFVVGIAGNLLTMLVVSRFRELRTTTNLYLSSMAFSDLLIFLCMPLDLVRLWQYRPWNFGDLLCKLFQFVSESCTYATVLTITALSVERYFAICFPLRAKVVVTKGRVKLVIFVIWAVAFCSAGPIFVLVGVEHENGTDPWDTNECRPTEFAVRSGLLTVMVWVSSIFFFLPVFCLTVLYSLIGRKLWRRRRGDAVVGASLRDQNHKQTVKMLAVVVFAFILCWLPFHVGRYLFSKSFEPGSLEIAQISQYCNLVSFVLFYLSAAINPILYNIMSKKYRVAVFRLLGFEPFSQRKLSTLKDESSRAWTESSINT
row,Activity,SMILES
1,E,CCN1CC=C(C(=O)N[C@H](COCc2ccccc2)C(=O)N2CCC3(CC2)CN(S(C)(=O)=O)c2ccccc23)CC1 [Compound 100]
2,E,CS(=O)(=O)N1CC2(CCN(C(=O)[C@@H](COCc3ccccc3)NC(=S)Nc3cccnc3)CC2)c2ccccc21 [Compound 86]
3,E,CC(C)(C)NC(=S)N[C@H](COCc1ccccc1)C(=O)N1CCC2(CC1)CN(S(C)(=O)=O)c1ccccc12 [Compound 85]
4,E,CN1CCC(N[C@H](COCc2ccccc2)C(=O)N2CCC3(CC2)CN(S(C)(=O)=O)c2ccccc23)CC1 [Compound 84]
5,E,COCC(=O)N1CC2(CCN(C(=O)[C@@H](COCc3ccccc3)NC(=O)CN(C)C)CC2)c2ccccc21 [Compound 73]
6,E,CS(=O)(=O)N1CC2(CCN(C(=O)[C@@H](COCc3ccccc3)NC(=O)C3(N)CC3)CC2)c2ccccc21 [Compound 120]
7,E,CS(=O)(=O)N1CC2(CCN(C(=O)[C@@H](COCc3ccccc3)NC(=O)NCCCO)CC2)c2ccccc21 [Compound 95]
8,E,CS(=O)(=O)N1CC2(CCN(C(=O)[C@@H](COCc3ccccc3)N3CCCS3(=O)=O)CC2)c2ccccc21 [Compound 158]
9,E,CC(C)(C)OC(=O)N[C@H](COCc1ccccc1)C(=O)N1CCC2(CC1)CN(S(=O)(=O)Cc1ccccc1)c1ccccc12 [Compound 67]
10,E,CS(=O)(=O)N1CC2(CCN(C(=O)[C@@H](COCc3ccccc3)NS(=O)(=O)CCCN3CCOCC3)CC2)c2ccccc21 [Compound 149]
11,E,CS(=O)(=O)N1CC2(CCN(C(=O)[C@@H](COCc3ccccc3)NC(=O)Cn3ccnc3)CC2)c2ccccc21 [Compound 55]
12,E,CN1CCC(C(=O)N[C@H](Cc2c[nH]c3ccccc23)C(=O)N2CCC3(CC2)CN(S(C)(=O)=O)c2ccccc23)CC1 [Compound 135]
13,E,CN(C)CCS(=O)(=O)N[C@H](COCc1ccccc1)C(=O)N1CCC2(CC1)CN(S(C)(=O)=O)c1ccccc12 [Compound 83]
14,E,CNCC(=O)N[C@H](COCc1ccccc1)C(=O)N1CCC2(CC1)CN(S(C)(=O)=O)c1ccccc12 [Compound 70]
15,E,CC(C)(C)OC(=O)NC(C)(C)C(=O)N[C@H](COCc1ccccc1)C(=O)N1CCC2(CC1)CN(S(C)(=O)=O)c1ccccc12 [Compound 50]
16,E,CN(C)CCC(=O)N[C@H](COCc1ccccc1)C(=O)N1CCC2(CC1)CN(S(C)(=O)=O)c1ccccc12 [Compound 89]
17,E,CN1CCC(C(=O)NC(Cc2ccc3ccccc3c2)C(=O)N2CCC3(CC2)CN(S(C)(=O)=O)c2ccccc23)CC1 (centres unmarked) [Compound 138]
18,E,CS(=O)(=O)N1CC2(CCN(C(=O)[C@@H](COCc3ccccc3)NC(=O)NCCN3CCCCC3)CC2)c2ccccc21 [Compound 97]
19,E,CN1CCN(C(=O)N[C@H](COCc2ccccc2)C(=O)N2CCC3(CC2)CN(S(C)(=O)=O)c2ccccc23)CC1 [Compound 93]
20,E,CC(C)(C)NCCS(=O)(=O)N[C@H](COCc1ccccc1)C(=O)N1CCC2(CC1)CN(S(C)(=O)=O)c1ccccc12 [Compound 145]
21,E,CN([C@H](COCc1ccccc1)C(=O)N1CCC2(CC1)CN(S(C)(=O)=O)c1ccccc12)S(=O)(=O)CCCCl [Compound 160]

row,SMILES,Activity
1,CN(C)CC(=O)N[C@H](COCc1ccccc1)C(=O)N1CCC2(CC1)CN(S(C)(=O)=O)c1ccccc12 [Compound 20],C (C refers to a compound having antagonist activity of Ki>100 nM and <1500 nM in a cell based assay)
2,CN(C)Cc1ccc(C(=O)N[C@H](COCc2ccccc2)C(=O)N2CCC3(CC2)CN(S(C)(=O)=O)c2ccccc23)cc1 [Compound 40],C (C refers to a compound having antagonist activity of Ki>100 nM and <1500 nM in a cell based assay)
3,CN1CCC(CN(C)[C@H](COCc2ccccc2)C(=O)N2CCC3(CC2)CN(S(C)(=O)=O)c2ccccc23)CC1.Cl.Cl [Compound 22],C (C refers to a compound having antagonist activity of Ki>100 nM and <1500 nM in a cell based assay)
4,CCN(CC)CCS(=O)(=O)N[C@H](COCc1ccccc1)C(=O)N1CCC2(CC1)CN(S(C)(=O)=O)c1ccccc12 [Compound 8],"D (D refers to a compound having antagonist activity with Ki, <100 nM and agonist activity with EC50<100 nM in a cell-based assay)"
5,CN(C)C(C)(C)C(=O)N[C@H](COCc1ccccc1)C(=O)N1CCC2(CC1)CN(S(C)(=O)=O)c1ccccc12 [Compound 131],B (B refers to a compound having agonist activity with EC50<100 nM in a cell based assay)
6,CC(C)N1CCC(C(=O)N[C@H](COCc2ccccc2)C(=O)N2CCC3(CC2)CN(S(C)(=O)=O)c2ccccc23)CC1 [Compound 19],C (C refers to a compound having antagonist activity of Ki>100 nM and <1500 nM in a cell based assay)
7,CC(C)NCCS(=O)(=O)N[C@H](COCc1ccccc1)C(=O)N1CCC2(CC1)CN(S(C)(=O)=O)c1ccccc12 [Compound 146],C (C refers to a compound having antagonist activity of Ki>100 nM and <1500 nM in a cell based assay)
8,CN(C)CC(=O)N[C@H](COCc1ccccc1)C(=O)N1CCC2(CC1)CN(S(=O)(=O)Cc1ccccc1)c1ccccc12 [Compound 26],C (C refers to a compound having antagonist activity of Ki>100 nM and <1500 nM in a cell based assay)
9,CC(=O)OCC(=O)N[C@H](COCc1ccccc1)C(=O)N1CCC2(CC1)CN(S(C)(=O)=O)c1ccccc12 [Compound 34],C (C refers to a compound having antagonist activity of Ki>100 nM and <1500 nM in a cell based assay)
10,CC(C)(C)NCCCS(=O)(=O)N[C@H](COCc1ccccc1)C(=O)N1CCC2(CC1)CN(S(C)(=O)=O)c1ccccc12 [Compound 150],A (A refers to a compound having antagonist activity with Ki<100 nM in a cell based assay)
11,CN1CCC[C@H]1C(=O)N[C@H](COCc1ccccc1)C(=O)N1CCC2(CC1)CN(S(C)(=O)=O)c1ccccc12 [Compound 24],C (C refers to a compound having antagonist activity of Ki>100 nM and <1500 nM in a cell based assay)
12,COCC(=O)N[C@H](COCc1ccccc1)C(=O)N1CCC2(CC1)CN(S(C)(=O)=O)c1ccccc12 [Compound 31],C (C refers to a compound having antagonist activity of Ki>100 nM and <1500 nM in a cell based assay)
13,CS(=O)(=O)N1CC2(CCN(C(=O)[C@@H](COCc3ccccc3)NS(=O)(=O)CCN3C4CCCC3CC4)CC2)c2ccccc21 [Compound 151],C (C refers to a compound having antagonist activity of Ki>100 nM and <1500 nM in a cell based assay)
14,CS(=O)(=O)N1CC2(CCN(C(=O)[C@@H](COCc3ccccc3)NC(=O)C[C@@H]3CCCN3)CC2)c2ccccc21 [Compound 23],C (C refers to a compound having antagonist activity of Ki>100 nM and <1500 nM in a cell based assay)
15,CC(C)CCN1CCC(C(=O)N[C@H](COCc2ccccc2)C(=O)N2CCC3(CC2)CN(S(C)(=O)=O)c2ccccc23)CC1 [Compound 43],C (C refers to a compound having antagonist activity of Ki>100 nM and <1500 nM in a cell based assay)
16,CCN(C)CCC(=O)N[C@H](COCc1ccccc1)C(=O)N1CCC2(CC1)CN(S(C)(=O)=O)c1ccccc12 [Compound 15],C (C refers to a compound having antagonist activity of Ki>100 nM and <1500 nM in a cell based assay)
17,CNC(C)(C)C(=O)N[C@H](COCc1ccccc1)C(=O)N1CCC2(CC1)CN(S(C)(=O)=O)c1ccccc12 [Compound 132],B (B refers to a compound having agonist activity with EC50<100 nM in a cell based assay)
18,CS(=O)(=O)N1CC2(CCN(C(=O)[C@@H](COCc3ccccc3)NC(=O)C3(N)CCCC3)CC2)c2ccccc21 [Compound 134],B (B refers to a compound having agonist activity with EC50<100 nM in a cell based assay)
19,CN1CCCC(C(=O)N[C@H](COCc2ccccc2)C(=O)N2CCC3(CC2)CN(S(C)(=O)=O)c2ccccc23)C1 (some centres unmarked) [Compound 13],A (A refers to a compound having antagonist activity with Ki<100 nM in a cell based assay)
20,CN1CCC(C(=O)N[C@H](COCc2ccccc2)C(=O)N2CCC3(C=Cc4ccccc43)CC2)CC1 [Compound 3],A (A refers to a compound having antagonist activity with Ki<100 nM in a cell based assay)
